Results: publication PMC11855827, “High-Throughput Screening of Five Compound Libraries for Anthelmintic Activity and Toxicity Leads to the Discovery of Two Flavonoid Compounds” (International Journal of Molecular Sciences, 2025)
Several values for one entry are separate records, joined by “and”; a condition that tells them apart may be missing. Equal values may be shown once.

System: C. elegans
Details: 110 μM; for Percentage of motility inhibition 0 h / Percentage of motility inhibition 24 h: Table S2, C. elegans SS assay, averages of 4 data points

SMILES | Percentage of motility inhibition 0 h | Percentage of motility inhibition 24 h (24 h) | Inhibition (%) 110 μM (24 h) (C. elegans L4 motility, 24 h, mean ± SD of four experiments)
CC(=O)C1CCC2C3CC=C4CC(OS(=O)(=O)O)CCC4(C)C3CCC12C (stereo not drawn) [Pregnenolone monosulfate] | 0% | 4% | 
CC(=O)[C@H]1CC[C@H]2[C@@H]3CC=C4C[C@@H](O)CC[C@]4(C)[C@H]3CC[C@]12C [Pregnenolone] | 11% | 4% | 
COc1cc(NC(C)CCCN)c2ncccc2c1.O=P(O)(O)O.O=P(O)(O)O (stereo not drawn) [Primaquine (Diphosphate)] | 37% | 0% | 
Oc1cc(O)c2c(c1)OC1(c3ccc(O)c(O)c3)Oc3cc(O)c4c(c3C2C1O)OC(c1ccc(O)c(O)c1)C(O)C4 (stereo not drawn) [Procyanidin A1] | 23% | 12% | 
Oc1cc(O)c2c(c1)O[C@@]1(c3ccc(O)c(O)c3)Oc3cc(O)c4c(c3[C@@H]2[C@H]1O)O[C@H](c1ccc(O)c(O)c1)[C@H](O)C4 [Procyanidin A2] | 6% | 3% | 
Nc1ccc2cc3ccc(N)cc3nc2c1.Nc1ccc2cc3ccc(N)cc3nc2c1.O=S(=O)(O)O [Proflavine (hemisulfate)] | 7% | 16% | 
CC(C)NCC(O)COc1cccc2ccccc12.Cl (stereo not drawn) [Propranolol (hydrochloride)] |  | 51% and 35% | 
C[C@H]1O[C@@H](O[C@H]2CC[C@@]3(C)[C@@H](CC[C@]4(C)[C@@H]3C=CC3=C5CC(C)(C)CC[C@]5(CO)[C@H](O)C[C@]34C)[C@]2(C)CO)[C@H](O)[C@@H](O)[C@H]1O [Prosaikogenin D] | 15% | 54% | 
COC1=C(C)C(=O)O[C@]12C(=O)C(C)=C1CCCCN3[C@H]([C@@H]4C[C@H](C)C(=O)O4)CC[C@@]132 [Protostemotinine] | 0% | 22% | 
[Cl-].c1c2c(cc3c1OCO3)-c1cc3cc4c(cc3c[n+]1CC2)OCO4 [Pseudocoptisine (chloride)] | 0% | 14% | 
CC(C)(O)[C@H]1CC[C@@](C)([C@H]2CC[C@]3(C)[C@@H]2[C@H](O)C[C@@H]2[C@@]4(C)CC[C@H](O)C(C)(C)[C@@H]4[C@@H](O[C@@H]4O[C@H](CO)[C@@H](O)[C@H](O)[C@H]4O)C[C@]23C)O1 [Pseudoginsenoside RT5] | 0% | 16% | 
COC(=O)C1=CC[C@@]23CC[C@@H]([C@@](C)(/C=C/C=C(\C)C(=O)O[C@@H]4O[C@H](CO)[C@@H](O)[C@H](O)[C@H]4O)OC2=O)[C@@]3(OC(C)=O)CC1 [Pseudolaric acid B β-D-glucoside] | 4% | 0% | 
C=C(C)[C@@H]1CC[C@]2(C(=O)O)CC[C@]3(C)[C@H](CC[C@@H]4[C@@]5(C)CC[C@H](O[C@@H]6OC[C@H](O)[C@H](O)[C@H]6O[C@@H]6O[C@@H](C)[C@H](O)[C@@H](O)[C@H]6O)[C@@](C)(CO)[C@@H]5CC[C@]43C)[C@@H]12 [Pulchinenoside A] | 15% | 7% | 
C=C(C)[C@@H]1CC[C@]2(C(=O)O[C@@H]3O[C@H](CO[C@@H]4O[C@H](CO)[C@@H](O[C@@H]5O[C@@H](C)[C@H](O)[C@@H](O)[C@H]5O)[C@H](O)[C@H]4O)[C@@H](O)[C@H](O)[C@H]3O)CC[C@]3(C)[C@H](CC[C@@H]4[C@@]5(C)CC[C@H](O[C@@H]6OC[C@H](O)[C@H](O)[C@H]6O[C@@H]6O[C@@H](C)[C@H](O)[C@@H](O)[C@H]6O)[C@@](C)(CO)[C@@H]5CC[C@]43C)[C@@H]12 [Pulchinenoside C] | 4% | 0% | 
C[C@@H]1O[C@@H](O[C@H]2[C@H](O[C@H]3CC[C@@]4(C)[C@@H](CC[C@]5(C)[C@@H]4CC=C4[C@@H]6CC(C)(C)CC[C@]6(C(=O)O)CC[C@]45C)[C@]3(C)CO)OC[C@H](O[C@@H]3O[C@H](CO)[C@@H](O)[C@H](O)[C@H]3O)[C@@H]2O)[C@H](O)[C@H](O)[C@H]1O [Pulsatilla saponin D] | 0% | 0% | 
COc1ccc(C[C@H](N)C(=O)N[C@H]2[C@@H](O)[C@H](n3cnc4c(N(C)C)ncnc43)O[C@@H]2CO)cc1.Cl.Cl [Puromycin (D ihydrochloride)] | 13% | 14% | 
CN1CCCN=C1/C=C/c1cccs1.O=C(O)C(O)C(O)C(=O)O [Pyrantel tartrate, reference compound] | 85% | 61% | 26 ± 1%

SMILES | Percentage of motility inhibition 0 h | Percentage of motility inhibition 24 h (24 h) | Inhibition (%) 110 μM (24 h) (C. elegans L4 motility, 24 h, mean ± SD of four experiments)
O=c1c(O[C@@H]2O[C@H](CO[C@@H]3O[C@H](CO)[C@@H](O)[C@H](O)[C@H]3O)[C@@H](O)[C@H](O)[C@H]2O)c(-c2ccc(O)c(O)c2)oc2cc(O)cc(O)c12 [Quercetin 3‐gentiobioside] | 42% | 0% | 
O.O.O=c1c(O)c(-c2ccc(O)c(O)c2)oc2cc(O)cc(O)c12 [Quercetin (dihydrate)] | 0% | 3% | 
C=C[C@H]1CN2CC[C@H]1C[C@@H]2[C@@H](O)c1ccnc2ccc(OC)cc12.Cl.O [Quinidine hydrochloride monohydrate] | 40% | 6% | 
C=C[C@H]1CN2CC[C@H]1C[C@H]2[C@H](O)c1ccnc2ccc(OC)cc12.Cl.O.O [Quinine (hydrochloride dihydrate)] |  | 8% | 
C=C[C@H]1C[N@@]2CC[C@H]1C[C@H]2[C@H](O)c1ccnc2ccc(OC)cc12 [Quinine] |  | 0% and 8% and 1% | 
C[C@@H]1O[C@@H](O[C@H]2[C@H](O[C@H]3[C@H](O[C@H]4CC[C@]5(C)[C@H]6CC=C7[C@@H]8CC(C)(C)CC[C@]8(C(=O)O)CC[C@@]7(C)[C@]6(C)CC[C@H]5C4(C)C)OC[C@H](O)[C@@H]3O)O[C@H](CO)[C@@H](O)[C@@H]2O)[C@H](O)[C@H](O)[C@H]1O [Raddeanin A] | 4% | 6% | 
C[C@@H]1O[C@@H](O[C@H]2[C@H](O[C@H]3[C@H](O[C@H]4CC[C@]5(C)[C@H]6CC=C7[C@@H]8CC(C)(C)CC[C@]8(C(=O)O[C@@H]8O[C@H](CO[C@@H]9O[C@H](CO)[C@@H](O[C@@H]%10O[C@@H](C)[C@H](O)[C@@H](O)[C@H]%10O)[C@H](O)[C@H]9O)[C@@H](O)[C@H](O)[C@H]8O)CC[C@@]7(C)[C@]6(C)CC[C@H]5C4(C)C)OC[C@H](O)[C@@H]3O)O[C@H](CO)[C@@H](O)[C@@H]2O)[C@H](O)[C@H](O)[C@H]1O [Raddeanoside R8] | 3% | 0% | 
Cl.O=C(c1ccc(OCCN2CCCCC2)cc1)c1c(-c2ccc(O)cc2)sc2cc(O)ccc12 [Raloxifene (hydrochloride)] | 32% | 0% | 
Cc1nnc(C(=O)NC(C)(C)c2nc(C(=O)NCc3ccc(F)cc3)c([O-])c(=O)n2C)o1.[K+] [Raltegravir (potassium salt)] | 3% | 4% | 
COC(=O)[C@H]1[C@H]2C[C@H]3c4[nH]c5ccccc5c4CCN3C[C@H]2CC[C@@H]1O.Cl [Rauwolscine (hydrochloride)] | 7% | 0% | 
C=C1C[C@@]23CC[C@H]4[C@@](C)(CCC[C@@]4(C)C(=O)O[C@@H]4O[C@H](CO)[C@@H](O)[C@H](O)[C@H]4O[C@@H]4O[C@H](CO)[C@@H](O)[C@H](O)[C@H]4O)[C@@H]2CC[C@]1(O[C@@H]1O[C@H](CO)[C@@H](O)[C@H](O[C@@H]2O[C@H](CO)[C@@H](O)[C@H](O)[C@H]2O)[C@H]1O[C@@H]1O[C@H](CO)[C@@H](O)[C@H](O)[C@H]1O)C3 [Rebaudioside D] | 11% | 3% | 
C=C1C[C@@]23CC[C@H]4[C@@](C)(CCC[C@@]4(C)C(=O)O[C@@H]4O[C@H](CO)[C@@H](O)[C@H](O[C@@H]5O[C@H](CO)[C@@H](O)[C@H](O)[C@H]5O)[C@H]4O[C@@H]4O[C@H](CO)[C@@H](O)[C@H](O)[C@H]4O)[C@@H]2CC[C@]1(O[C@@H]1O[C@H](CO)[C@@H](O)[C@H](O[C@@H]2O[C@H](CO)[C@@H](O)[C@H](O)[C@H]2O)[C@H]1O[C@@H]1O[C@H](CO)[C@@H](O)[C@H](O)[C@H]1O)C3 [Rebaudioside M] | 7% | 0% | 
C[C@]1(O[C@H]2O[C@H](CO)[C@H](O)[C@H](O)[C@H]2O)C[C@@H](O)[C@@H]2C=CO[C@@H](O[C@@H]3O[C@H](CO)[C@@H](O)[C@H](O)[C@H]3O)[C@@H]21 [Rehmannioside C] | 0% | 8% | 
OCC1=C[C@@H](O)[C@]2(O[C@@H]3O[C@H](CO)[C@@H](O)[C@H](O)[C@H]3O[C@@H]3O[C@H](CO)[C@@H](O)[C@H](O)[C@H]3O)C=CO[C@@H](O[C@@H]3O[C@H](CO)[C@@H](O)[C@H](O)[C@H]3O)[C@H]12 [Rehmannioside D] | 11% | 35% | 
CC1(C)[C@H]2O[C@H]2[C@H]2[C@](C)(O)[C@@H]3CC[C@@H]4[C@@H](O)[C@@]3(C[C@@H](O)[C@@]21O)C[C@@]4(C)O [Rhodojaponin III] | 5% | 2% | 
CC(=O)O[C@@H]1C[C@]23C[C@@](C)(O)[C@H](CC[C@H]2[C@@](C)(O)[C@@H]2[C@@H]4O[C@@H]4C(C)(C)[C@@]12O)[C@H]3O [Rhodojaponin II] | 4% | 8% | 
C=CCCN1C[C@@H]2C[C@H](C1)c1cccc(=O)n1C2 [Rhombifoline] | 0% | 0% | 
